From PubChem BioAssay AID1919009 (Molecular Pharmacology Branch, DTP, NCI, 2023)

Test system: K24384-001-R-PDC complex spheroid growth
Test: Anticancer human tumor K24384-001-R-PDC patient-derived pancreatic adenocarcinoma cell line growth inhibition [AhR]
Settings: for IC50: curve of first compound; for viability, T/C: stronger effect = lower value
Procedure, shortened: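 Complex tumor spheroids co-cultured with HUVEC and human MSC stroma; AhR antagonists tested in combination with standard-of-care and investigational agents. Top concentration at or near clinical Cmax (else 10 microM), half-log dilutions; growth expressed as percent test/control.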

[1] = second compound 0.1 µM, first compound 0.0316 µM
[2] = second compound 0.1 µM, first compound 0.1 µM
[3] = second compound 0.1 µM, first compound 0.316 µM
[4] = second compound 0.1 µM, first compound 1 µM
[5] = second compound 0.316 µM, first compound 0.0316 µM
[6] = second compound 0.316 µM, first compound 0.1 µM
[7] = second compound 0.316 µM, first compound 0.316 µM
[8] = second compound 0.316 µM, first compound 1 µM
[9] = second compound 1 µM, first compound 0.0316 µM
[10] = second compound 1 µM, first compound 0.1 µM
[11] = second compound 1 µM, first compound 0.316 µM
[12] = second compound 1 µM, first compound 1 µM
[13] = second compound 3.16 µM, first compound 0.0316 µM
[14] = second compound 3.16 µM, first compound 0.1 µM
[15] = second compound 3.16 µM, first compound 0.316 µM
[16] = second compound 3.16 µM, first compound 1 µM
[17] = second compound 10 µM, first compound 0.0316 µM
[18] = second compound 10 µM, first compound 0.1 µM
[19] = second compound 10 µM, first compound 0.316 µM
[20] = second compound 10 µM, first compound 1 µM
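Wherever viability, T/C is given: percent of DMSO vehicle-treated spheroid viability set as 100%.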

Row | Compound | IC50 (second compound 0.1 µM) [nM] | IC50 (second compound 0.316 µM) [nM] | IC50 (second compound 1 µM) [nM] | IC50 (second compound 3.16 µM) [nM] | IC50 (second compound 10 µM) [nM] | viability, T/C [1] [%] | viability, T/C [2] [%] | viability, T/C [3] [%] | viability, T/C [4] [%] | viability, T/C [5] [%] | viability, T/C [6] [%] | viability, T/C [7] [%] | viability, T/C [8] [%] | viability, T/C [9] [%] | viability, T/C [10] [%] | viability, T/C [11] [%] | viability, T/C [12] [%] | viability, T/C [13] [%] | viability, T/C [14] [%] | viability, T/C [15] [%] | further results
1 | CC1COCCN1c1cc(-c2ccnn2C)c2ccnc(-c3ccn[nH]3)c2n1 (stereo not given) + CC(CO)NC(=O)c1cc(-c2ccc(Cl)cc2)nn(-c2cnn(C)c2)c1=O | 115 | 91 | 94.7 | 54.6 | 52.5 | 80.8 | 51.7 | 33 | 26.4 | 75.5 | 50.9 | 32.3 | 24.3 | 86.4 | 49 | 28 | 21.3 | 64.2 | 34.2 | 23.7 | viability, T/C (second compound 0.1 µM, first compound 0.00316 µM): 105%; viability, T/C (second compound 0.1 µM, first compound 0.01 µM): 93.7%; viability, T/C (second compound 0.316 µM, first compound 0.00316 µM): 111%; viability, T/C (second compound 0.316 µM, first compound 0.01 µM): 118%; viability, T/C (second compound 1 µM, first compound 0.00316 µM): 94%; viability, T/C (second compound 1 µM, first compound 0.01 µM): 121%; viability, T/C (second compound 3.16 µM, first compound 0.00316 µM): 73.1%; viability, T/C (second compound 3.16 µM, first compound 0.01 µM): 74.8%; viability, T/C [16]: 25.2%; viability, T/C (second compound 10 µM, first compound 0.00316 µM): 85.8%; viability, T/C (second compound 10 µM, first compound 0.01 µM): 79.2%; viability, T/C [17]: 60.1%; viability, T/C [18]: 37.7%; viability, T/C [19]: 27.2%; viability, T/C [20]: 28.4%
2 | CC1COCCN1c1cc(C2(S(C)(=N)=O)CC2)nc(-c2ccnc3[nH]ccc23)n1 (stereo not given) + CC(CO)NC(=O)c1cc(-c2ccc(Cl)cc2)nn(-c2cnn(C)c2)c1=O | > 10000 | 3120 | 9450 | 3590 | > 10000 | 113 | 128 | 133 | 77.7 | 136 | 133 | 136 | 84.2 | 142 | 139 | 136 | 103 | 125 | 96.8 | 132 | viability, T/C (second compound 0.1 µM, first compound 3.16 µM): 55.8%; viability, T/C (second compound 0.1 µM, first compound 10 µM): 42.8%; viability, T/C (second compound 0.316 µM, first compound 3.16 µM): 52.7%; viability, T/C (second compound 0.316 µM, first compound 10 µM): 46.2%; viability, T/C (second compound 1 µM, first compound 3.16 µM): 66.5%; viability, T/C (second compound 1 µM, first compound 10 µM): 48.6%; viability, T/C [16]: 96.4%; viability, T/C (second compound 3.16 µM, first compound 3.16 µM): 53.1%; viability, T/C (second compound 3.16 µM, first compound 10 µM): 40.6%; viability, T/C [17]: 122%; viability, T/C [18]: 125%; viability, T/C [19]: 130%; viability, T/C [20]: 107%; viability, T/C (second compound 10 µM, first compound 3.16 µM): 64%; viability, T/C (second compound 10 µM, first compound 10 µM): 53.9%
